Eight compounds from patent publication US9957236B2, “Selective inhibitors interfering with fibroblast growth factor receptor and FRS2 interaction for the prevention and treatment of cancer and other diseases” (LIMITED LIABILITY COMPANY “RUSSIAN PHARMACEUTICAL …, priority 2014, dated 2018) can be followed below.

Assay [1] concerns angiogenesis stimulated by bFGF. Kind of assay: Matrigel implant angiogenesis stimulated by bFGF. In kind it is in vivo, mice. The following applies: Matrigel implants in mice; intraperitoneally day 0, 3, 6; RPT835 15 mg/kg, Bevacizumab 10 mg/kg. As to the method: (§1) Eighteen hybrid mice of the 1 generation F1 (C57B1/6×DBA/2), males with a weight of 22-30 g are used in the research. The mice (nomenclature number M02.13.00011) were received from a branch of nursery “Stolbovaya”. The method described earlier was used in the experiment [Passaniti A., 1992]. The control and experiment groups had at least 3 mice. Aliquots (1,000 mcl) of Matrigel (BD Biosciences) containing heparin 60 conventional units/ml, VEGF (200 ng/ml, BD Biosciences) or bFGF (100 ng/ml, BD Biosciences) were prepared on ice. Matrigel containing heparin 60 conventional units/ml was used as negative control. Matrigel was injected in the mice subcutaneously into the side part of the back. After injection, Matrigel quickly forms single, hard gel-like implant. A weight of the inhibitor was dissolved in DMSO to concentration of 10^−2M. Aliquots were frozen down to −20° C. and unfrozen immediately before injection. Refreezing of the solution was not allowed. The tested and standard objects were administered intraperitoneally on the 0, 3 and 6 day of Matrigel impintation: Bevacizumab in a dose of 10 mg/kg and RPT835-15 mg/kg. Seven days after administration of Matrigel, the mice were put into sleep with diethyl ether to remove the implant. The implants were fixed for 24-36 hours in 10% neutral formalin and enclosed in paraffin for further histological research.

Assay [2] deals with angiogenesis in the implants containing VEGF. As to the kind of experiment: Matrigel implant angiogenesis stimulated by VEGF. It is filed as in vivo. To be noted: Matrigel implants in mice; 10 mg/kg intraperitoneally day 0, 3, 6; p<0.001. On the procedure: as §1
Assay [3] has as its target T1, FRS2 (Homo sapiens, UniProt Q8WU20).
T1 sequence (Q8WU20 1-508): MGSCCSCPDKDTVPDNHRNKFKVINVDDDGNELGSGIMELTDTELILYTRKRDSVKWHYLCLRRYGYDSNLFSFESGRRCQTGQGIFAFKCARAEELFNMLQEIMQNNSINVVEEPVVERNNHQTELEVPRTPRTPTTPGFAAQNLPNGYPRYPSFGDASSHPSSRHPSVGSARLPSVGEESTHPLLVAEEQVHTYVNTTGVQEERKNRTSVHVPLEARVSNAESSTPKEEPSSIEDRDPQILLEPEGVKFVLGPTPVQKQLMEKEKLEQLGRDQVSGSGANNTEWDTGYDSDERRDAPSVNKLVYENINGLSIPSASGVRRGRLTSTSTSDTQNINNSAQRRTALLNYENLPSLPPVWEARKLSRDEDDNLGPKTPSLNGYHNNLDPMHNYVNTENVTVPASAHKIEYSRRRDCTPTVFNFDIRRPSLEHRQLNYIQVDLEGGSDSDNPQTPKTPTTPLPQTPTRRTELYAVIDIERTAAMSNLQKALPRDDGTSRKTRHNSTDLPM
As to the kind of experiment: FRS2 phosphorylation in FGF-2-stimulated Snu16 cells (Western blotting). It is filed as cell-based. On the set-up: endogenous in cells; host or cells: Snu16. To be noted: FGF-2 stimulation. On the procedure: By way of chemical synthesis we received the specified compounds. Stomach cancer cells Snu16 expressing FGFR2 were cultivated according to the standard method. A part of the cells was left for negative control, FGF-2 was added to the other part (positive control). Therapeutic groups included: addition of the inhibitor according to formula V and subsequent stimulation of FGF-2, addition of the inhibitor according to formula IX and subsequent stimulation of FGF-2, addition of the inhibitor according to formula XI and subsequent stimulation of FGF-2. The Western-blotting method was used for assessment of the phosphorylation level of various kinases.
(In general: In western blotting, separated proteins are transferred to a membrane and probed.)

The subject of assay [4] is FGFR2. Kind of assay: Automated Western blotting of FGFR2 phosphorylation in Snu16 cells. It is filed as cell-based. To be noted: 100 mcg/ml, FGF-2 stimulation. As to the method:
(§2) Stomach cancer cells Snu16 were sawn in 96-cavity plates with a size of 90 mcl/cavity. After 24 hours of incubation in a damped incubator at a temperature of 37 C, 5% CO2 and 95% air to cells were the tested dissolved agent described by formula VI in the volume of 100 mcg/ml, and then FGF-2 was added as a stimulator.
(§3) After the days of cultivation by the method of automated Western-blotting, the phosphorylation level of the following proteins: FGFR2, FRS2α, FRS2β, Shp2, Grb2 was studied in the cells. After another 24 hours of the cultivation, the cells were counted.

The next assay has as its system Shp2 and Grb2. Kind of assay: Automated Western blotting of Shp2 and Grb2 phosphorylation in Snu16 cells. In kind it is cell-based. The following applies: noted in some cells. On the procedure:
as §2, §3

In a further assay the test system is FRS2α and FRS2β. Kind of assay: Automated Western blotting of FRS2α and FRS2β phosphorylation in Snu16 cells. It is filed as cell-based. To be noted: FGF-2 stimulation. As to the method:
as §2, §3

The test system of the next assay is Snu16 cells. Kind of assay: Proliferation of stomach cancer cells Snu16 (cell count). In kind it is cell-based. As to the method: as §2, §3
After the next cultivation the number of the cells equaled between the groups, and also with the control (stimulation of FGF-2, without cultivation with the inhibitor). See the results in Table 1.

Another assay deals with HUVEC. Kind of assay: Proliferation of endothelial cells HUVEC with FGF-2. It is filed as cell-based. The following applies: Homo sapiens, FGF-2 25 ng/ml, 96 hours, read-out: Cell growth suppression, IC50. As to the method: Endothelial cells HUVEC were sawn in 96-cavity plates and cultivate for 24 hours. After that, the following was added to the cells: • 1) inhibitor RPT835, or • 2) inhibitor described by Formula IX in this invention, or • 3) brivanib—multi-kinase inhibitor of FGFR/VEGFR, and also to all cells—FGF-2 in a concentration of 25 ng/ml.
The cells were cultivated for 96 hours in general and then were calculated.

The target in a further assay is T2, FGFR3 (Homo sapiens, UniProt P22607).
T2 construct: endogenous in cells; host or cells: HUVEC, Caki-1, KATO III
T2 sequence (P22607 23-806): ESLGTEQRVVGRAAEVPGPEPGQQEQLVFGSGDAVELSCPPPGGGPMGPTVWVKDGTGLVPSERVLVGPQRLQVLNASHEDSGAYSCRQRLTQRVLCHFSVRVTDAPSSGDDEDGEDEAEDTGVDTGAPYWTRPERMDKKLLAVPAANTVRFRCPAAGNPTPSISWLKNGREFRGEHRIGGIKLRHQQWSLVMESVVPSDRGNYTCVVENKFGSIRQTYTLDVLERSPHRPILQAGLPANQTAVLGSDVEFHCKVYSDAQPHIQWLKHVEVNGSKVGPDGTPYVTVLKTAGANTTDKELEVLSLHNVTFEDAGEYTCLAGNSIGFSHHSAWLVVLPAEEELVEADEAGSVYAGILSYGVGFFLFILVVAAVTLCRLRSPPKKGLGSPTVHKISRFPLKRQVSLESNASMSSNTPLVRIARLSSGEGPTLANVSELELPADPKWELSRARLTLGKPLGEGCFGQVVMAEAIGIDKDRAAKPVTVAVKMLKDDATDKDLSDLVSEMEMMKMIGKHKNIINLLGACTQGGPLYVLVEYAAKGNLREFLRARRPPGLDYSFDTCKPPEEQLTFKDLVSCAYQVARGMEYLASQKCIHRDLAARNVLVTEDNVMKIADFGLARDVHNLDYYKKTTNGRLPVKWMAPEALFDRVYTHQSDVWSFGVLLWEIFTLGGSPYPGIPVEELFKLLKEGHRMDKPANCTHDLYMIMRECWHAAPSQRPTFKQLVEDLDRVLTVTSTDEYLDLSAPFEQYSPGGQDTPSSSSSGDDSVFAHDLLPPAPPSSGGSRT
Kind of assay: Western blotting of FGFR3 phosphorylation in HUVEC, Caki-1, KATO III cells. In kind it is cell-based. On the procedure:
(§4) According to the procedure described above, the phosphorylation levels of type 1-3 fibroblast growth factor receptors, FRS2, and also phosphorylation levels of VEGFR1 and intracellular kinases PI3K, p44/42(MAPK), Akt, mTOR were analyzed by the Western-blotting method.
(§5) Endothelial cells HUVEC, human renal cell carcinoma of Caki-1 type, stomach cancer cells KATO III were used in the research. All the mentioned cells expressed various types of the mentioned receptors. Just like in Example 5, a part of the cells stimulated FGF-2 and/or VEGF-A, a part of the cells was cultivated with the inhibitor described by Formula VIII, a part of the cells left without stimulation and treatment.

For another assay, the target named is T3, FGFR1 (Homo sapiens, UniProt P11362).
T3 construct: endogenous in cells; host or cells: HUVEC, Caki-1, KATO III
T3 sequence (P11362 22-822): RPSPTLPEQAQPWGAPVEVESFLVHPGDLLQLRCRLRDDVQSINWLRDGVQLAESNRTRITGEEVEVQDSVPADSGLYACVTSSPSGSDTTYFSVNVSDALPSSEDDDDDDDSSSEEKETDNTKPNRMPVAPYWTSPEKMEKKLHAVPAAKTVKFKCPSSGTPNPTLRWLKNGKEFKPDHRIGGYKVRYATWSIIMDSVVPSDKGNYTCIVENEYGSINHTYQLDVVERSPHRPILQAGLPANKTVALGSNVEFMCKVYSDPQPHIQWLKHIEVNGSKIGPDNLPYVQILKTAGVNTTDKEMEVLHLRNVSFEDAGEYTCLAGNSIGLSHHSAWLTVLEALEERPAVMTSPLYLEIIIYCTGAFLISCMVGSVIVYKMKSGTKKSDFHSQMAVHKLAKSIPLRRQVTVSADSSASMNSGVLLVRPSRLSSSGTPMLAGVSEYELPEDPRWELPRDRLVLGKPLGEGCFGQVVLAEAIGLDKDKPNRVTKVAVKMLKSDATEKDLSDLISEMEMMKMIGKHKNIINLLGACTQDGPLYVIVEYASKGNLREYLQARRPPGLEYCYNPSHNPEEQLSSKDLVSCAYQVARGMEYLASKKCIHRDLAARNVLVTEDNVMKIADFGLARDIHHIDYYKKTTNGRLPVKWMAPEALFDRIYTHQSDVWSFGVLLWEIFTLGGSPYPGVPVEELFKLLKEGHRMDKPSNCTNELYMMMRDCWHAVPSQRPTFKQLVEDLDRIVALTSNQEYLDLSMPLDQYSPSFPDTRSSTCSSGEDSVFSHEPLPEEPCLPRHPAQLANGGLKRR
Kind of assay: Western blotting of FGFR1 phosphorylation in HUVEC, Caki-1, KATO III cells. It is filed as cell-based. As to the method:
as §4, §5

For a further assay, the system named is p44/42(MAPK), Akt, mTOR. Kind of assay: Western blotting of other kinases in HUVEC, Caki-1, KATO III cells. In kind it is cell-based. As to the method: as §4, §5
In the next assay the test system is PI3K. As to the kind of experiment: Western blotting of PI3K phosphorylation in HUVEC, Caki-1, KATO III cells. In kind it is cell-based. The following applies: P=0.017. As to the method:
as §4, §5

The target in assay [5] is FGFR2 (Homo sapiens, UniProt P21802). As to the kind of experiment: Western blotting of FGFR2 phosphorylation in HUVEC, Caki-1, KATO III cells. In kind it is cell-based. As to the method:
as §4, §5

In assay [6] the target is T1, FRS2. Kind of assay: Western blotting of FRS2 phosphorylation in HUVEC, Caki-1, KATO III cells. It is filed as cell-based. On the set-up: endogenous in cells. The following applies: P=0.001. On the procedure:
as §4, §5

Another assay deals with T4, VEGFR1 (Homo sapiens, UniProt P17948).
T4 construct: endogenous in cells; host or cells: HUVEC, Caki-1, KATO III
T4 sequence (P17948 27-1338): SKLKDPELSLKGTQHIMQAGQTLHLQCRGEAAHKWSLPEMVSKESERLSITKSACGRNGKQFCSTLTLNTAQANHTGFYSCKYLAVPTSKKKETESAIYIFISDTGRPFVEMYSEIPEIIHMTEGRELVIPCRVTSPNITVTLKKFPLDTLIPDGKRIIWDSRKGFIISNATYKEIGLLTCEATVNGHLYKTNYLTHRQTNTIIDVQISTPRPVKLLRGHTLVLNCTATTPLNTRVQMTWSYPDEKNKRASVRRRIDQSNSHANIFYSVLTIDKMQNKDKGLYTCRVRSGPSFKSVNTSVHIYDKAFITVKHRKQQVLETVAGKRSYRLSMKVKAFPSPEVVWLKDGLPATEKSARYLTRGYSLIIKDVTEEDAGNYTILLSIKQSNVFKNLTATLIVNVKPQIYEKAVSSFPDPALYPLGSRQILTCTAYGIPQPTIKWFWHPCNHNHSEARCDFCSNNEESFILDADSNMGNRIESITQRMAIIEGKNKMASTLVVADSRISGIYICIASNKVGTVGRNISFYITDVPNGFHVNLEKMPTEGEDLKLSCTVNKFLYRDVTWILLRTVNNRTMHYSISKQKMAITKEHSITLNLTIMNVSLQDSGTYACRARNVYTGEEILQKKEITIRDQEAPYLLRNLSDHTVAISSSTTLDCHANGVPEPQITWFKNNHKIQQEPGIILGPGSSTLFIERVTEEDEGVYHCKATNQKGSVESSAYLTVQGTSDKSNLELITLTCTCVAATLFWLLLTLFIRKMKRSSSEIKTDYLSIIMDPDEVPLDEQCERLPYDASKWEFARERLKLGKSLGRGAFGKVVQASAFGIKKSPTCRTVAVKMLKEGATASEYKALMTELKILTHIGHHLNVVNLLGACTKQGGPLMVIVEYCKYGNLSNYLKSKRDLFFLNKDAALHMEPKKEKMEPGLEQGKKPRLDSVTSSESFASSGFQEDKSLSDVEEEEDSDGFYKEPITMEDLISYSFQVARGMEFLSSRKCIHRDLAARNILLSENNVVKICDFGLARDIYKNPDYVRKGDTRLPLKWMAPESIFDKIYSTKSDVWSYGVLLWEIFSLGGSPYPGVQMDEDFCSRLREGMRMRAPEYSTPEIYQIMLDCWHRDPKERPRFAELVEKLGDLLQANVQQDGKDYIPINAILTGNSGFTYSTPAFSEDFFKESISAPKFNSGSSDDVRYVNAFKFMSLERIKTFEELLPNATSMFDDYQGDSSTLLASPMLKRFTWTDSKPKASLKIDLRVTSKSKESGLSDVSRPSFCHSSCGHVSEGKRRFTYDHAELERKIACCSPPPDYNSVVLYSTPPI
As to the kind of experiment: Western blotting of VEGFR1 phosphorylation in HUVEC, Caki-1, KATO III cells. It is filed as cell-based. As to the method: as §4, §5

Assay [7] has as its system collagen-induced arthritis. As to the kind of experiment: Collagen-induced arthritis model. In kind it is in vivo. To be noted: mice, 100 mg/kg through a tube for 40 days. On the procedure: Collagen-induced arthritis model was used in the research. Arthritic was induced in mice by intradermal injections of collagen of the II type combined with Freund's adjuvant. The mice were randomized into 2 groups of 5 animals in each one: • group 1: control, water through a tube for 40 days. • group 2: inhibitor described by formula III in this invention, 100 mg/kg, through a tube for 40 days. On the 40 day, the mice were subjected to euthanasia, the tissue was studied.

Where only a bound is given, the exact number is not on record here.

FGFR2 (Homo sapiens, UniProt P21802), sequence (P21802 22-821, species assumed): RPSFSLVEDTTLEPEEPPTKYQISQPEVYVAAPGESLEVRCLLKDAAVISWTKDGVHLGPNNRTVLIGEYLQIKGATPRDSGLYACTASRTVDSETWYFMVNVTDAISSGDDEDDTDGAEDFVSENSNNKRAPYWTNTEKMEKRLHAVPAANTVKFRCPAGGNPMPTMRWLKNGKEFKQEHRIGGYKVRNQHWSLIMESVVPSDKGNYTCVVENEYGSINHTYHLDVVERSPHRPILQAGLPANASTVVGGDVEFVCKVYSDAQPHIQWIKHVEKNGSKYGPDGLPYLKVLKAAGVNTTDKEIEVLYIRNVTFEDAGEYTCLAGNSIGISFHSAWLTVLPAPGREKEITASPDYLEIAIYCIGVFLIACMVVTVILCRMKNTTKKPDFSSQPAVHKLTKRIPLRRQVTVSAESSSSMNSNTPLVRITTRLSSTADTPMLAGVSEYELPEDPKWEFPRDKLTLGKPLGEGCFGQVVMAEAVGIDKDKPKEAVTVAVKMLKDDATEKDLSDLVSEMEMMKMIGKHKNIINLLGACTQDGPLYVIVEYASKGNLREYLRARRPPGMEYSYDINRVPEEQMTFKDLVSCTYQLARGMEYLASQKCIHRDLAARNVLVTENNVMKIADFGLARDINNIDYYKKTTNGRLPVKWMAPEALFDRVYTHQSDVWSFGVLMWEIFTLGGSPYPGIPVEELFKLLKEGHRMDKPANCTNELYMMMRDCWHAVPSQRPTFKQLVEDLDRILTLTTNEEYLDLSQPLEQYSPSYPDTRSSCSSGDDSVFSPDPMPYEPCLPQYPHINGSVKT

As to “Bevacizumab: standard object blocking VEGF-stimulated angiogenesis, 10 mg/kg [reference compound]”, the “angiogenesis stimulated by bFGF” value in assay [1] is listed as “but not angiogenesis induced by bFGF”. In [2], the “angiogenesis in the implants containing VEGF” value is given as “completely blocked”.
For the compound `Cc1cc(N)c(NS(=O)(=O)c2cccc(C(=O)O)c2)cc1-c1cncnc1` [Inhibitor V, 3-(N-(2-amino-4-methyl-5-(pyrimidin-5-yl)phenyl)sulfamoyl)benzoic acid], the “transmission of the signal from FGFR to FRS2” value (“transmission of the signal” below) at FRS2 [3] is on record as “interfere with transmission of the signal from FGFR to FRS2”.
For the compound `Cc1cc(NNc2cc(C)c(-c3cccnc3)cc2NS(=O)(=O)c2cccc(C(=O)O)c2)c(NS(=O)(=O)c2cccc(C(=O)O)c2)cc1-c1cccnc1` [Inhibitor VI], the “phosphorylation of FGFR2” value in the assay with FGFR2 [4] was “did not suppress”. In the assay on Shp2 and Grb2, the “suppression of Shp2 and Grb2 protein phosphorylation” value is recorded as “more than 10 times”. Moreover, in the assay with FRS2α and FRS2β, the IC50 was below 10 nM; the “suppression of phosphorylation of FRS2α and FRS2β” value is given as 12 times. Further, the “proliferation compared with control group” value with Snu16 cells (group with phosphorylation suppression of FRS2 and Shp2 and/or Grb2, P < 0.0001) is recorded as “suppression,”. The “proliferation compared with control group” value in the assay on Snu16 cells (group with phosphorylation suppression of FRS2 and without influence on phosphorylation of Shp2 and/or Grb2, P < 0.0001) is listed as “suppression,”.
With `Cc1cc2c(F)c(Oc3ncnn4cc(OC[C@@H](C)O)c(C)c34)ccc2[nH]1` [Brivanib, reference compound], the IC50 in the assay on HUVEC came to 289 nM.
`CC1C(=O)Nc2ccccc2N1C(=O)c1cccc(C(=O)O)c1` (stereo not drawn) [Inhibitor IX, 3-(2-methyl-3-oxo-1,2,3,4-tetrahydroquinoxalyne-1-carbonyl)benzoic acid]: the IC50 in the assay with HUVEC turned out to be 32 nM. The “transmission of the signal” value at FRS2 [3] was “interfere with transmission of the signal from FGFR to FRS2”.
Regarding `O=C(O)c1cccc(Nc2cccc3ncccc23)c1` [Inhibitor XI, 3-(quinoline-5-ylamine)benzoic acid], on FRS2 [3], the “transmission of the signal” value was “interfere with transmission of the signal from FGFR to FRS2”.
With `O=C1CN(C(=O)c2cccc(C(=O)O)c2)c2ccccc2N1` [Inhibitor VIII, 3-(3-oxo-1,2,3,4-tetrahydroquinoxaline-1-carbonyl)benzoic acid], the “decrease of phosphorylation of FGFR3 (weakly)” value on FGFR3 came to 1.8 times. On FGFR1, the “level of FGFR1 phosphorylation” value is on record as “even increased”. The “influence on other kinases” value in the assay on p44/42(MAPK), Akt, mTOR is on record as “did not have influence on other kinases”. The “decrease of phosphorylation of PI3K” value in the assay with PI3K is 10 times. In addition, the “decrease of phosphorylation of FGFR2 (weakly)” value at FGFR2 [5] was 1.5 times. Further, the “decrease of phosphorylation of FRS2” value at FRS2 [6] is on record as 14 times. In addition, the “decrease of phosphorylation of VEGFR1 (weakly)” value at VEGFR1 turned out to be 2.3 times.
Turning to `Cc1cc([N+](=O)[O-])c(NS(=O)(=O)c2cccc(C(=O)O)c2)cc1-c1cncnc1` [Inhibitor III, 3-(N-(4-methyl-2-nitro-5-(pyrimidin-5-yl)phenyl)sulfamoyl)benzoic acid], the “tissue findings (infiltration)” value in assay [7] is listed as “Only insignificant infiltration with single neutrophils”.

The term IC50 denotes the concentration that inhibits the measured activity by half.
